Biological target: T1, ASK-1 enzyme (Homo sapiens, UniProt Q99683)
T1 construct: purchased Signal Chem M13-11G-10
Test: Inhibitory ability against ASK-1 enzyme activity (ADP-Glo Kinase Assay)
Assay type: biochemical
Details: 250 μM ATP, MBP substrate, 15 ng ASK-1 enzyme, 30° C. 40 minutes
Procedure: Experimental Example 1: Assay of Inhibitory Ability Against ASK-1 Enzyme Activity (ADP-Glo™ Kinase Assay)
In order to evaluate the inhibitory ability of the compounds of Examples 1 to 24 against ASK-1 enzyme activity, the following experiment was carried out using ADP-Glo™ (Promega, Cat. No. V9101). Each of the compounds was prepared into a solution at concentrations of 0.32 nM, 1.6 nM, 8 nM, 40 nM, 200 nM, 1,000 nM by adding a kinase buffer solution (40 mM Tris, 20 mM MgCl2, 0.1 mg/mL bovine serum albumin in H2O). Subsequently, 250 μM of ATP (Promega, Cat. No. V915A) and 0.5 μg/μL of MBP substrate (Signal Chem, Cat. No. 42-51N) were added thereto, and the mixture was reacted at 30° C. for 40 minutes in the presence of 15 ng of ASK-1 enzyme (Signal Chem, Cat. No. M13-11G-10). Then, the ADP-Glo™ reagent and a kinase detection reagent were sequentially added thereto and reacted for 40 minutes and 10 minutes, respectively. After completion of the reaction, luminescence was measured using a Synergy™ NEO microplate reader (BioTEK, NEOB-1311189).
The inhibitory ability of the compounds of Examples 1 to 24 against ASK-1 enzyme activity was verified by analyzing data from the measured RLU values. Specifically, the inhibitory ability against ASK-1 enzyme activity was assessed by deriving the residual activity percentage of the ASK-1 enzyme in the samples treated with the compounds at the concentration to be tested, while using the RLU value of the sample not treated with the compounds as a 100% control.

T1 sequence (Q99683 649-946 limits assumed): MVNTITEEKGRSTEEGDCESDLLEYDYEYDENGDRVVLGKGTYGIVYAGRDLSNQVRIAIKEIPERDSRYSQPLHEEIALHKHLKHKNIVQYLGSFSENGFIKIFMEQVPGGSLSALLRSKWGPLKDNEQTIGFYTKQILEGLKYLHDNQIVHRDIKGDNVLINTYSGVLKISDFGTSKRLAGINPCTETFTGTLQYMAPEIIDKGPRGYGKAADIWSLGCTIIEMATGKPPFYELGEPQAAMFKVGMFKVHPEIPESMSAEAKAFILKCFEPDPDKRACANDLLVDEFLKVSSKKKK

Row | IC50 | Compound
1 | 5.8 nM | CC(C)n1cnnc1-c1cccc(NC(=O)c2ccc(-c3ccccc3)[nH]2)n1 [Example 9, N-(6-(4-isopropyl-4H-1,2,4-triazol-3-yl)pyridin-2-yl)-5-phenyl-1H-pyrrole-2-carboxamide]
2 | 5.1 nM | Cc1ccccc1-c1ccc(C(=O)Nc2cccc(-c3nncn3C(C)C)n2)[nH]1 [Example 22, N-(6-(4-isopropyl-4H-1,2,4-triazol-3-yl)pyridin-2-yl)-5-o-tolyl-1H-pyrrole-2-carboxamide]
3 | 4.8 nM | Cc1ccc(-c2ccc(C(=O)Nc3cccc(-c4nncn4C(C)C)n3)[nH]2)cc1C [Example 18, 5-(3,4-dimethylphenyl)-N-(6-(4-isopropyl-4H-1,2,4-triazol-3-yl)pyridin-2-yl)-1H-pyrrole-2-carboxamide]
4 | 5.8 nM | Cc1cccc(-c2ccc(C(=O)Nc3cccc(-c4nncn4C(C)C)n3)[nH]2)c1 [Example 14, N-(6-(4-isopropyl-4H-1,2,4-triazol-3-yl)pyridin-2-yl)-5-m-tolyl-1H-pyrrole-2-carboxamide]
5 | 7.7 nM | COCc1c[nH]c(C(=O)Nc2cccc(-c3nncn3C(C)C)n2)c1 [Example 3, N-(6-(4-isopropyl-4H-1,2,4-triazol-3-yl)pyridin-2-yl)-4-(methoxymethyl)-1H-pyrrole-2-carboxamide]
6 | 5.2 nM | Cc1ccc(-c2ccc(C(=O)Nc3cccc(-c4nncn4C(C)C)n3)[nH]2)cc1F [Example 19, 5-(3-fluoro-4-methylphenyl)-N-(6-(4-isopropyl-4H-1,2,4-triazol-3-yl)pyridin-2-yl)-1H-pyrrole-2-carboxamide]
7 | 11.6 nM | CC(C)n1cnnc1-c1cccc(NC(=O)c2ccc[nH]2)n1 [Example 7, N-(6-(4-isopropyl-4H-1,2,4-triazol-3-yl)pyridin-2-yl)-1H-pyrrole-2-carboxamide]
8 | 6.5 nM | CC(C)n1cnnc1-c1cccc(NC(=O)c2cc(-c3ccccc3)c[nH]2)n1 [Example 6, N-(6-(4-isopropyl-4H-1,2,4-triazol-3-yl)pyridin-2-yl)-4-phenyl-1H-pyrrole-2-carboxamide]
9 | 7.5 nM | CCOc1ccc(-c2ccc(C(=O)Nc3cccc(-c4nncn4C(C)C)n3)[nH]2)cc1 [Example 24, 5-(4-ethoxyphenyl)-N-(6-(4-isopropyl-4H-1,2,4-triazol-3-yl)pyridin-2-yl)-1H-pyrrole-2-carboxamide]
10 | 9.9 nM | Cc1ncc(-c2ccc(C(=O)Nc3cccc(-c4nncn4C(C)C)n3)[nH]2)cn1 [Example 12, N-(6-(4-isopropyl-4H-1,2,4-triazol-3-yl)pyridin-2-yl)-5-(2-methylpyrimidine-5-yl)-1H-pyrrole-2-carboxamide]
11 | 8.3 nM | CCc1c[nH]c(C(=O)Nc2cccc(-c3nncn3C(C)C)n2)c1 [Example 4, 4-ethyl-N-(6-(4-isopropyl-4H-1,2,4-triazol-3-yl)pyridin-2-yl)-1H-pyrrole-2-carboxamide]
12 | 5.4 nM | CC(C)n1cnnc1-c1cccc(NC(=O)c2ccc(-c3ccc(Cl)cc3)[nH]2)n1 [Example 16, 5-(4-chlorophenyl)-N-(6-(4-isopropyl-4H-1,2,4-triazol-3-yl)pyridin-2-yl)-1H-pyrrole-2-carboxamide]
13 | 8.5 nM | Cc1cc(C)cc(-c2ccc(C(=O)Nc3cccc(-c4nncn4C(C)C)n3)[nH]2)c1 [Example 15, 5-(3,5-dimethylphenyl)-N-(6-(4-isopropyl-4H-1,2,4-triazol-3-yl)pyridin-2-yl)-1H-pyrrole-2-carboxamide]
14 | 3.1 nM | CSc1ccc(-c2ccc(C(=O)Nc3cccc(-c4nncn4C(C)C)n3)[nH]2)cc1 [Example 21, N-(6-(4-isopropyl-4H-1,2,4-triazol-3-yl)pyridin-2-yl)-5-(4-(methylthio)phenyl)-1H-pyrrole-2-carboxamide]
15 | 49.7 nM | CCc1ccc(C(=O)Nc2cccc(-c3nncn3C(C)C)n2)[nH]1 [Example 11, 5-ethyl-N-(6-(4-isopropyl-4H-1,2,4-triazol-3-yl)pyridin-2-yl)-1H-pyrrole-2-carboxamide]
16 | 7.9 nM | CC(C)n1cnnc1-c1cccc(NC(=O)c2ccc(-c3cccs3)[nH]2)n1 [Example 17, N-(6-(4-isopropyl-4H-1,2,4-triazol-3-yl)pyridin-2-yl)-5-(thiophene-2-yl)-1H-pyrrole-2-carboxamide]
17 | 6 nM | Cc1ccc(-c2c[nH]c(C(=O)Nc3cccc(-c4nncn4C(C)C)n3)c2)cc1 [Example 5, N-(6-(4-isopropyl-4H-1,2,4-triazol-3-yl)pyridin-2-yl)-4-p-tolyl-1H-pyrrole-2-carboxamide]
18 | 9.9 nM | Cc1c[nH]c(C(=O)Nc2cccc(-c3nncn3C(C)C)n2)c1 [Example 1, N-(6-(4-isopropyl-4H-1,2,4-triazol-3-yl)pyridin-2-yl)-4-methyl-1H-pyrrole-2-carboxamide]
19 | 5.9 nM | CC(C)n1cnnc1-c1cccc(NC(=O)c2ccc(-c3ccc(F)cc3)[nH]2)n1 [Example 23, 5-(4-fluorophenyl)-N-(6-(4-isopropyl-4H-1,2,4-triazol-3-yl)pyridin-2-yl)-1H-pyrrole-2-carboxamide]
20 | 10.2 nM | Cc1ccc(-c2ccc(C(=O)Nc3cccc(-c4nncn4C(C)C)n3)[nH]2)cc1 [Example 10, N-(6-(4-isopropyl-4H-1,2,4-triazol-3-yl)pyridin-2-yl)-5-p-tolyl-1H-pyrrole-2-carboxamide]
21 | 4.4 nM | CC(C)n1cnnc1-c1cccc(NC(=O)c2ccc(-c3ccc(S(C)(=O)=O)cc3)[nH]2)n1 [Example 13, N-(6-(4-isopropyl-4H-1,2,4-triazol-3-yl)pyridin-2-yl)-5-(4-(methylsulfonyl)phenyl)-1H-pyrrole-2-carboxamide]
22 | 34.4 nM | Cc1ccc(C(=O)Nc2cccc(-c3nncn3C(C)C)n2)[nH]1 [Example 8, N-(6-(4-isopropyl-4H-1,2,4-triazol-3-yl)pyridin-2-yl)-5-methyl-1H-pyrrole-2-carboxamide]
23 | 5.3 nM | CC(C)n1cnnc1-c1cccc(NC(=O)c2ccc(-c3ccc(F)c(Cl)c3)[nH]2)n1 [Example 20, 5-(3-chloro-4-fluorophenyl)-N-(6-(4-isopropyl-4H-1,2,4-triazol-3-yl)pyridin-2-yl)-1H-pyrrole-2-carboxamide]
24 | 4 nM | Cc1cccc(-c2c[nH]c(C(=O)Nc3cccc(-c4nncn4C(C)C)n3)c2)c1 [Example 2, N-(6-(4-isopropyl-4H-1,2,4-triazol-3-yl)pyridin-2-yl)-4-m-tolyl-1H-pyrrole-2-carboxamide]

Reference: patent US12077523B2, “N-(isopropyl-triazolyl)pyridinyl)-heteroaryl-carboxamide derivatives and use thereof” (HK INNO.N CORPORATION, priority 2018, dated 2024)
